Test results from US20250027085A1, “COMPOSITIONS AND METHODS FOR TREATING ALZHEIMER'S DISEASE UTILIZING A TRANSCRIPTIONAL MASTER REGULATOR OF THE RETROMER COMPLEX” (THE TRUSTEES OF COLUMBIA UNIVERSITY IN THE CITY OF NEW YORK, priority 2022, published 2025).

Test system: CHOP
Assay: CHOP quantitative immunofluorescence in soma after axonal Aβ1-42/Aβ42
Type: cell-based, rat
Conditions: axonal treatment; Aβ oligomers 36 hours, nelfinavir in the last 24 hours
Experimental: Hippocampi were dissected from embryonic day (E) 16-18 rat embryos obtained from pregnant Sprague-Dawley dams (Envigo). All animal procedures were approved by the Institutional Animal Care and Use Committee at Columbia University. Cell dissociation was performed using TripLE Express. Neurons (50,000-60,000 per microfluidic chamber) were plated on 0.1 mg ml^-1 poly-D-lysine (Millipore Sigma) and 2 μg ml^-1 laminin (Bio-Techne) coated substrates and grown in Neurobasal supplemented with 10% fetal bovine serum, 2 mM L-glutamine, 1 mM sodium pyruvate, and antibiotics (50 U ml^-1 penicillin-streptomycin). Tripartite microfluidic chambers were produced with Dow Corning Sylgard 184 Silicone Encapsulant Clear Kit (10:1 mix ratio; Ellsworth Adhesives) cured at […] for at least 4 hours following published protocols (Park et al. 2006; Desai et al. 2009). Chamber design incorporated two sets of 200-μm-long microgroove barriers to exclude crossing of cell bodies and dendrites (Taylor et al. 2005; […] et al. 2009). After 24 hours, medium was changed to Neurobasal containing 1×B27 and 2 mM L-glutamine. Subsequent medium changes (half volumes) were performed at DIV4 and thereafter every 3-5 days. […] Mean pixel intensity values were computed after background fluorescence subtraction.

Cc1c(O)cccc1C(=O)N[C@@H](CSc1ccccc1)[C@H](O)CN1C[C@H]2CCCC[C@H]2C[C@H]1C(=O)NC(C)(C)C [nelfinavir]
downstream induction of CHOP expression in the soma: abolished
